We go through 32 compounds from patent publication US5506238A, “Biphenylmethane derivative and pharmacological use” (Eisai Co., Ltd., priority 1989, dated 1996).

Series [1] has as its target T1, angiotensin II contracture of rabbit aortic strip (Oryctolagus cuniculus, UniProt P34976).
T1 construct: A spiral preparation of the aorta having a width of 1.5 to 2 mm and a length of 15 to 20 mm was prepared therefrom; from tissue; host or cells: thoracic aorta of male New Zealand white rabbit, spiral strip
T1 sequence (P34976 1-359): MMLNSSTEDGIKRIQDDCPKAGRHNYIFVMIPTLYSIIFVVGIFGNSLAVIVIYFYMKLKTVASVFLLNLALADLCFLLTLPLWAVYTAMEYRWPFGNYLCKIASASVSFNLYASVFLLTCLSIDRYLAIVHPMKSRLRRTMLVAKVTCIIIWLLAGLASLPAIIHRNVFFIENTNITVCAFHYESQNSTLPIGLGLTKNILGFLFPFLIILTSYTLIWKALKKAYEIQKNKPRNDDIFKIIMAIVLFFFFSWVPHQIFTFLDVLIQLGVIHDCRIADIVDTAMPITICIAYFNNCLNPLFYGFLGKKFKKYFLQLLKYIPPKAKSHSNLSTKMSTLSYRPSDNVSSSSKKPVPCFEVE
The series is described as follows: Angiotensin II contracture antagonism through the use of rabbit aortic strip. Type of series: cell-based, rabbit (New Zealand white). The conditions noted are these: negative log of antagonist concentration giving dose ratio 2, Schild's equation, 40 min preincubation, read-out: pA2 (converted). As to the method: (1) Angiotens in II contracture antagonism through the use of rabbit aortic strip A male New Zealand white rabbit having a weight of 2 to 3 kg was anesthetized with pentobarbital sodium, and the thoracic aorta was removed. A spiral preparation of the aorta having a width of 1.5 to 2 mm and a length of 15 to 20 mm was prepared therefrom and suspended in a 10-ml Magnus tank containing a Krebs bicarbonate solution (Krebs bicarbonate (mM): NaCl 118.4, KCl 4.7, CaCl2 2.0, MgSO4.7H2O 1.2, NaHCO3.25.0, KH2 PO4 1.2, glucose 11.1). 10^-5 M indomethacine was added thereto to eliminate the influence of prostaglandin. The Krebs solution was maintained at 37° C. and bubbled with 95% O2 -5% CO2. An initial tension of 1 g was applied to the strip, and the strip was allowed to stand for about 1 hr. Then, 50 mM KCl was added thereto to induce contracture. After the contracture was stabilized, the strip was washed. The above procedure was repeated twice, and the second contracture was taken as 100% contracture. Thereafter, angiotensin II was accumulatively added from 10^-10 to 3×10^-6 to prepare a dose-reaction curve. […] The contraction was recorded on a multi-pen recorder (R-10 manufactured by Rika Denki Kogyo Co., Ltd.) through a carrier amplifier (A[…] or A[…] manufactured by Nihon Koden Corp.) by making use of an isometric piezoelectric transducer ([…] manufactured by Nihon Koden Corp.). The potency of the angiotensin II antagonist was determined by calculating negative logarithm (-log) of a concentration of pA2 value [i.e., a concentration of competitive antagonist which makes the dose ratio of the active agent 2] through the use of Schild's equation.

The subject of series [2] is pressor reaction of angiotensin II. The series is described as follows: Inhibition of pressor reaction of angiotensin II on anesthetized rat (Wistar Kyoto) having blocked ganglions. The conditions noted are these: iv, 0.05 h, ganglion-blocked Wistar Kyoto rat, i.v., 3 min after administration, read-out: Dose necessary for shifting about doubled shift of pressor reaction of angiotensin toward right (ED50). Type of series: in vivo. As to the method:
(2) Inhibition of pressor reaction of angiotensin II on anesthetized rat (Wistar Kyoto) having blocked ganglions
A 9 to 25 week-old Wistar Kyoto male rat (Charles River Japan) was anesthetized with 50 mg/kg pentobarbital sodium intraperitoneally, and the carotid and jugular were cannulated. The carotid cannula was connected to a piezoelectric transducer (TP-200T), and recording was conducted with a polygraph system (RM-6000 manufactured by Nihon Koden Corp.) through a carrier amplifier (AP-601G manufactured by Nihon Koden Corp.) and an average blood pressure measuring panel (Nihon Koden Corp.) utilizing the integration of pulse waves. 10 mg/kg of pentolinium was administered intravenously through the jugular cannula to conduct ganglion blockade. […] Then, 0.1 to 10 mg/kg of the test compound was administered intravenously, and 0.03 to 1 μg/kg of angiotensin II was again administered intravenously 3 min after the administration of the test compound to determine the rate of shift of the dose-pressor reaction curve toward the right. A dose (C, ED50, mg/kg, i.v.) necessary for bringing about doubled shift of the dose-pressor reaction curve toward the right was determined from the dose of the antagonist (A, mg/kg, i.v.) and the above-described rate of shift (B). [formula]

The nature of series [3]: Seven-day repeated oral administration, observation of death in SD rats. Type of series: in vivo. The conditions noted are these: 100 mg/kg/day orally for seven days; eight week-old male SD rats; observed until 24 hr after final administration. As to the method:
Further, compound Nos. 1, 2, 5 and 6 listed in the above-described Table 1 were suspended in 0.5% MC (methylcellulose), and the suspension was orally administered to an eight week-old male SD (Sprague Dawley) rats (4 rats per group) in a dose of 100 mg/kg/day for seven days. The rats were observed until 24 hr after the final administration.

For the compound `CCCc1nc2c(C)ccnc2n1Cc1ccc(-c2ccccc2C(=O)O)cc1` [compound 17], the Kb in series [1] was 3.55 nM. The ED50 in series [2] stood at 0.17 mg/kg.

Turning to `CCCOc1nc2c(C)ccnc2n1Cc1ccc(-c2ccccc2-c2nnn[nH]2)cc1` [compound 27], the Kb in series [1] is 0.372 nM. In series [2], the ED50 was 0.034 mg/kg.

With `Cc1ccnc2c1nc(C1CC1)n2Cc1ccc(-c2ccccc2C(=O)O)cc1` [compound 18], the Kb in series [1] is 2.14 nM. Besides, the ED50 in series [2] came to 0.075 mg/kg.

In the case of `CCCCc1nc2cccnc2n1Cc1ccc(-c2cc(OC)ccc2-c2nnn[nH]2)cc1` [compound 8], the Kb in series [1] is 4.27 nM. For the same compound, the ED50 in series [2] was found to be 0.71 mg/kg.

Turning to `Cc1ccnc2c1nc(C1CCC1)n2Cc1ccc(-c2ccccc2C(=O)O)cc1` [compound 19], the Kb in series [1] was 4.9 nM. In addition, the ED50 in series [2] worked out at 0.25 mg/kg.

As for `Cc1ccnc2c1nc(C(C)C)n2Cc1ccc(-c2ccccc2-c2nnn[nH]2)cc1` [compound 10], in series [1], the Kb is 0.661 nM. Also, the ED50 in series [2] came out at 0.42 mg/kg.

Take `CCCc1ccnc2c1nc(CC)n2Cc1ccc(-c2ccccc2-c2nnn[nH]2)cc1` [compound 9]: in series [1], the Kb was 23.4 nM. Besides, in series [2], the ED50 is 1.33 mg/kg.

Regarding `CSc1nc2c(C)ccnc2n1Cc1ccc(-c2ccccc2-c2nnn[nH]2)cc1` [compound 12], the Kb in series [1] is 0.525 nM. Besides, the ED50 in series [2] worked out at 0.13 mg/kg.

Take `COc1nc2c(C)ccnc2n1Cc1ccc(-c2ccccc2-c2nnn[nH]2)cc1` [compound 30]: in series [1], the Kb was 0.132 nM. Besides, the ED50 in series [2] turned out to be 0.016 mg/kg.

Regarding `CCCc1nc2c(C)cc(C)nc2n1Cc1ccc(-c2ccccc2C(=O)O)cc1` [compound 23], the Kb in series [1] is 1.15 nM. Also, in series [2], the ED50 is 0.08 mg/kg.

Regarding `CCCc1nc2cccnc2n1Cc1ccc(-c2ccccc2-c2nn[nH]n2)cc1` [compound 2], the Kb in series [1] is 0.832 nM. Also, the ED50 in series [2] is 0.15 mg/kg. In series [3], the death entry is “no death was observed”.

In the case of `CCCc1nc2c(Cl)ccnc2n1Cc1ccc(-c2ccccc2C(=O)O)cc1` [compound 13], in series [1], the Kb was 8.71 nM. For the same compound, in series [2], the ED50 worked out at 0.66 mg/kg.

As for `Cc1cc(C)c2nc(C3CC3)n(Cc3ccc(-c4ccccc4C(=O)O)cc3)c2n1` [compound 25], the Kb in series [1] was 0.589 nM. For the same compound, in series [2], the ED50 came to 0.021 mg/kg.

In the case of `CCc1nc2ccc(Cl)nc2n1Cc1ccc(-c2ccccc2-c2nnn[nH]2)cc1` [compound 14], the Kb in series [1] is 2.95 nM. Besides, the ED50 in series [2] came out at 0.35 mg/kg.

Take `CCc1nc2cc(Br)cnc2n1Cc1ccc(-c2ccccc2-c2nnn[nH]2)cc1` [compound 4]: the Kb in series [1] is 10 nM. The ED50 in series [2] was 1.57 mg/kg.

For `CC#Cc1nc2c(C)ccnc2n1Cc1ccc(-c2ccccc2-c2nnn[nH]2)cc1` [compound 28], in series [1], the Kb was 0.891 nM. In addition, the ED50 in series [2] was determined as 0.04 mg/kg.

Take `CCOc1nc2c(C)cc(C)nc2n1Cc1ccc(-c2ccccc2-c2nnn[nH]2)cc1` [compound 31]: the Kb in series [1] is 0.182 nM. Also, the ED50 in series [2] came out at 0.01 mg/kg.

Turning to `CCOc1nc2c(C)ccnc2n1Cc1ccc(-c2ccccc2-c2nnn[nH]2)cc1` [compound 26], the Kb in series [1] is 0.0263 nM. Further, the ED50 in series [2] came to 0.0084 mg/kg.

`CCc1nc2c(C)ccnc2n1Cc1ccc(-c2ccccc2C(=O)O)cc1` [compound 16]: the Kb in series [1] was 3.16 nM. The ED50 in series [2] worked out at 0.29 mg/kg.

On to `CCCc1nc2c(C)c(Cl)cnc2n1Cc1ccc(-c2ccccc2-c2nnn[nH]2)cc1` [compound 15], for which the Kb in series [1] is 1.35 nM. Besides, the ED50 in series [2] came out at 0.32 mg/kg.

Consider `CCSc1nc2c(C)ccnc2n1Cc1ccc(-c2ccccc2C(=O)O)cc1` [compound 20], for which, in series [1], the Kb was 5.25 nM. Moreover, in series [2], the ED50 turned out to be 0.41 mg/kg.

For `CCCCc1nc2ccccc2n1Cc1ccc(-c2ccccc2-c2nn[nH]n2)cc1` [compound 1], in series [1], the Kb was 7.76 nM. For the same compound, the ED50 in series [2] was 0.74 mg/kg. Moreover, in series [3], the death result is “no death was observed”.

As for `Cc1cc(C)c2nc(C3CC3)n(Cc3ccc(-c4ccccc4-c4nnn[nH]4)cc3)c2n1` [compound 24], in series [1], the Kb is 0.0138 nM. Moreover, the ED50 in series [2] amounted to 0.015 mg/kg.

Consider `Cc1ccnc2c1nc(C1CC1)n2Cc1ccc(-c2ccccc2-c2nnn[nH]2)cc1` [compound 7], for which, in series [1], the Kb is 0.0229 nM. In addition, in series [2], the ED50 was 0.022 mg/kg.

For `Cc1ccnc2c1nc(C1CC1)n2Cc1ccc(-c2cc(Cl)ccc2C(=O)O)cc1` [compound 29], the Kb in series [1] is 3.39 nM. The ED50 in series [2] worked out at 0.06 mg/kg.

Take `CCCc1nc2c(C)cc(C)nc2n1Cc1ccc(-c2ccccc2-c2nnn[nH]2)cc1` [compound 22]: the Kb in series [1] was 0.024 nM. Besides, the ED50 in series [2] was determined as 0.04 mg/kg.

In the case of `CCCc1nc2c(C)ccnc2n1Cc1ccc(-c2cc(Cl)ccc2-c2nnn[nH]2)cc1` [compound 21], the Kb in series [1] is 0.0115 nM. In addition, in series [2], the ED50 worked out at 0.071 mg/kg.

Turning to `CCCc1nc2c(C)ccnc2n1Cc1ccc(-c2ccccc2-c2nn[nH]n2)cc1` [compound 5], in series [1], the Kb is 0.0468 nM. Further, the ED50 in series [2] is 0.029 mg/kg. Also, the death result in series [3] is “no death was observed”.

Consider `CCCc1nc2cccnc2n1Cc1ccc(-c2cc(Cl)ccc2-c2nnn[nH]2)cc1` [compound 3], for which the Kb in series [1] is 1.55 nM. Further, in series [2], the ED50 is 0.44 mg/kg.

For the compound `CCSc1nc2c(C)ccnc2n1Cc1ccc(-c2ccccc2-c2nnn[nH]2)cc1` [compound 11], the Kb in series [1] is 0.182 nM. The ED50 in series [2] is 0.04 mg/kg.

Consider `CCOc1nc2c(C)cc(C)nc2n1Cc1ccc(-c2ccccc2C(=O)O)cc1` [compound 32], for which, in series [1], the Kb is 0.575 nM. The ED50 in series [2] turned out to be 0.018 mg/kg.

As for `CCc1nc2c(C)ccnc2n1Cc1ccc(-c2ccccc2-c2nnn[nH]2)cc1` [compound 6], in series [1], the Kb is 0.0912 nM. For the same compound, in series [2], the ED50 amounted to 0.019 mg/kg. Besides, in series [3], the death result is reported as “no death was observed”.
